Results published in US10131652B2, “Pyrimidinyloxy benzene derivatives as herbicides” (E. I. DU PONT DE NEMOURS AND COMPANY, priority 2014, dated 2018).

How the values were obtained:
Experiment in all cases: Test F pre-/postemergence plant response
Assay type in all cases: in vivo
Details in all cases: scale 0 to 100
[1] = system: hairy beggarticks (Bidens pilosa)
Excerpt: (§1) Seeds of plant species selected from corn (Zea mays), soybean (Glycine max), velvetleaf (Abutilon theophrasti), lambsquarters (Chenopodium album), wild poinsettia (Euphorbia heterophylla), palmer pigweed (Amaranthus palmeri), waterhemp (common waterhemp, Amaranthus rudis), surinam grass (Brachiaria decumbens), large (Lg) crabgrass (Digitaria sanguinalis), Brazilian crabgrass (Digitaria horizontalis), fall panicum (Panicum dichotomiflorum), giant foxtail (Setaria faberii), green foxtail (Setaria viridis), goosegrass (Eleusine indica), johnsongrass (Sorghum halepense), ragweed (common ragweed, Ambrosia elatior), barnyardgrass (Echinochloa crus-galli), sandbur (southern sandbur, Cenchrus echinatus), arrowleaf sida (Sida rhombifolia), Italian ryegrass (Lolium multiflorum), dayflower (Virginia (VA) dayflower, Commelina virginica), field bindweed (Convolvulus arvensis), cocklebur (common cocklebur, Xanthium strumarium), momingglory (Ipomoea coccinea), nightshade (eastern black nightshade, Solanum ptycanthum), kochia (Kochia scoparia), yellow nutsedge (Cyperus esculentus), and hairy beggarticks (Bidens pilosa), were planted into a silt loam soil and treated preemergence with test chemicals formulated in a non-phytotoxic solvent mixture which included a surfactant.
(§2) At the same time, plants from these crop and weed species and also waterhemp_RES1, (ALS & Triazine resistant common waterhemp, Amaranthus rudis), and waterhemp_RES2, (ALS & HPPD resistant common waterhemp, Amaranthus rudis) were treated with postemergence applications of test chemicals formulated in the same manner. Plants ranged in height from 2 to 18 cm for postemergence treatments (1- to 4-leaf stage).
(§3) Treated plants and controls were maintained in a greenhouse for 14 to 21 days, after which time all species were compared to controls and visually evaluated. Plant response ratings, summarized in Table F, are based on a scale of 0 to 100 where 0 is no effect and 100 is complete control. A dash (-) response means no test result.

[2] = system: field bindweed (Convolvulus arvensis)
Excerpt: as §1, §2, §3

[3] = system: ragweed (common ragweed, Ambrosia elatior)
Excerpt: as §1, §2, §3

[4] = system: wild poinsettia (Euphorbia heterophylla)
Excerpt: as §1, §2, §3

[5] = system: fall panicum (Panicum dichotomiflorum)
Excerpt: as §1, §2, §3

corn (Zea mays) = system: corn (Zea mays)
Excerpt: as §1, §2, §3

kochia (Kochia scoparia) = system: kochia (Kochia scoparia)
Excerpt: as §1, §2, §3

[6] = system: arrowleaf sida (Sida rhombifolia)
Excerpt: as §1, §2, §3

[7] = system: waterhemp (common waterhemp, Amaranthus rudis)
Excerpt: as §1, §2, §3

[8] = system: palmer pigweed (Amaranthus palmeri)
Excerpt: as §1, §2, §3

SMILES | Plant response rating, Beggarticks ([1]; 16 g ai/ha Postemergence) | Plant response rating, Beggarticks ([1]; 31 g ai/ha Postemergence) | Plant response rating, Beggarticks ([1]; 62 g ai/ha Postemergence) | Plant response rating, Beggarticks ([1]; 125 g ai/ha Postemergence) | Plant response rating, Field Bindweed ([2]; 16 g ai/ha Postemergence) | Plant response rating, Field Bindweed ([2]; 31 g ai/ha Postemergence) | Plant response rating, Field Bindweed ([2]; 125 g ai/ha Postemergence) | Plant response rating, Ragweed ([3]; 16 g ai/ha Postemergence) | Plant response rating, Ragweed ([3]; 31 g ai/ha Postemergence) | Plant response rating, Ragweed ([3]; 62 g ai/ha Postemergence) | Plant response rating, Ragweed ([3]; 125 g ai/ha Postemergence) | Plant response rating, Poinsettia, Wild ([4]; 16 g ai/ha Postemergence) | Plant response rating, Poinsettia, Wild ([4]; 31 g ai/ha Postemergence) | Plant response rating, Poinsettia, Wild ([4]; 62 g ai/ha Postemergence) | Plant response rating, Poinsettia, Wild ([4]; 125 g ai/ha Postemergence) | Plant response rating, Panicum, Fall ([5]; 16 g ai/ha Postemergence) | Plant response rating, Panicum, Fall ([5]; 31 g ai/ha Postemergence) | Plant response rating, Panicum, Fall ([5]; 62 g ai/ha Postemergence) | Plant response rating, Panicum, Fall ([5]; 125 g ai/ha Postemergence) | Plant response rating, Corn (corn (Zea mays); 16 g ai/ha Postemergence) | also measured
FC(F)c1cc(-c2ccccc2Oc2ncc(Br)cn2)on1 [Compound 212] | 25 | 40 | 40 | 40 | 30 | 40 | 70 | 20 | 20 | 30 | 50 | 35 | 40 | 50 | 60 | 0 | 0 | 10 | 10 | 0 | Plant response rating, Field Bindweed ([2]; 62 g ai/ha Postemergence): 60; Plant response rating, Corn (corn (Zea mays); 31 g ai/ha Postemergence): 0; Plant response rating, Corn (corn (Zea mays); 62 g ai/ha Postemergence): 0; Plant response rating, Corn (corn (Zea mays); 125 g ai/ha Postemergence): 0; Plant response rating, Kochia (kochia (Kochia scoparia); 16 g ai/ha Postemergence): 50; Plant response rating, Kochia (kochia (Kochia scoparia); 31 g ai/ha Postemergence): 90; Plant response rating, Kochia (kochia (Kochia scoparia); 62 g ai/ha Postemergence): 100; Plant response rating, Kochia (kochia (Kochia scoparia); 125 g ai/ha Postemergence): 100; Plant response rating, Arrowleaf Sida ([6]; 16 g ai/ha Postemergence): 75; Plant response rating, Arrowleaf Sida ([6]; 31 g ai/ha Postemergence): 70; Plant response rating, Arrowleaf Sida ([6]; 62 g ai/ha Postemergence): 85; Plant response rating, Arrowleaf Sida ([6]; 125 g ai/ha Postemergence): 100; Plant response rating, Waterhemp ([7]; 16 g ai/ha Postemergence): 90; Plant response rating, Waterhemp ([7]; 31 g ai/ha Postemergence): 90; Plant response rating, Waterhemp ([7]; 62 g ai/ha Postemergence): 95; Plant response rating, Waterhemp ([7]; 125 g ai/ha Postemergence): 100; Plant response rating, Pigweed, Palmer ([8]; 16 g ai/ha Postemergence): 30; Plant response rating, Pigweed, Palmer ([8]; 31 g ai/ha Postemergence): 75; Plant response rating, Pigweed, Palmer ([8]; 62 g ai/ha Postemergence): 100; Plant response rating, Pigweed, Palmer ([8]; 125 g ai/ha Postemergence): 98
Fc1ccc(Oc2ncc(Cl)cn2)c(-c2cc(C(F)(Cl)Cl)on2)c1 [Compound 221] | 50 | 60 | 70 | 70 | 70 | 75 | 80 | 50 | 60 | 70 | 80 | 65 | 75 | 70 | 80 | 10 | 15 | 40 | 60 | 5 | Plant response rating, Corn (corn (Zea mays); 31 g ai/ha Postemergence): 10; Plant response rating, Corn (corn (Zea mays); 62 g ai/ha Postemergence): 10; Plant response rating, Corn (corn (Zea mays); 125 g ai/ha Postemergence): 20; Plant response rating, Kochia (kochia (Kochia scoparia); 16 g ai/ha Postemergence): 95; Plant response rating, Kochia (kochia (Kochia scoparia); 31 g ai/ha Postemergence): 98; Plant response rating, Kochia (kochia (Kochia scoparia); 62 g ai/ha Postemergence): 100; Plant response rating, Kochia (kochia (Kochia scoparia); 125 g ai/ha Postemergence): 100; Plant response rating, Arrowleaf Sida ([6]; 16 g ai/ha Postemergence): 80; Plant response rating, Arrowleaf Sida ([6]; 31 g ai/ha Postemergence): 90; Plant response rating, Arrowleaf Sida ([6]; 62 g ai/ha Postemergence): 98; Plant response rating, Arrowleaf Sida ([6]; 125 g ai/ha Postemergence): 98; Plant response rating, Waterhemp ([7]; 16 g ai/ha Postemergence): 90; Plant response rating, Waterhemp ([7]; 31 g ai/ha Postemergence): 98; Plant response rating, Waterhemp ([7]; 62 g ai/ha Postemergence): 95; Plant response rating, Waterhemp ([7]; 125 g ai/ha Postemergence): 100; Plant response rating, Pigweed, Palmer ([8]; 16 g ai/ha Postemergence): 85; Plant response rating, Pigweed, Palmer ([8]; 31 g ai/ha Postemergence): 90; Plant response rating, Pigweed, Palmer ([8]; 62 g ai/ha Postemergence): 100; Plant response rating, Pigweed, Palmer ([8]; 125 g ai/ha Postemergence): 100
